Data: patent US20100137398A1, “USE OF HDAC INHIBITORS FOR THE TREATMENT OF GASTROINTESTINAL CANCERS” (NOVARTIS AG, priority 2007, published 2010)
pIC50: −log10 of the molar value.

Key:
Assay in all cases: Monolayer growth inhibition assay (MTT/MTS)
Type in all cases: cell-based
[1] = system: Colo320HSR colon cancer cell line
Description: (§1) The MTT is a colorimetric assay to determine the cell proliferation rate. The yellow tetrazolium MTT (3-(4, 5-dimethylthiazolyl-2)-2, 5-diphenyltetrazolium bromide) is reduced, by metabolically active cells, in part by the action of dehydrogenase enzymes, to generate reducing equivalents such as NADH and NADPH. The resulting intracellular purple formazan can be solubilized and quantified by spectrophotometric means. The signals produced is directly proportional to the cell numbers. Describing the MTT assay in detail, experiments were done using six-point or 9 point drug titrations in multi-well tissue culture dishes, with outer rows left empty. Cells were suspended in complete media at densities of between 10^3 and 10^4 cell/ml, respectively, and added per well. The appropriate medium (200 μl) was then added. Twenty-four hours later, 10 μl of MTS solution, were added to one plates to determine the activity at the time of compound addition (T0). This plate was incubated at 37° for 4 hours and the optical density was measured on a Molecular Devices Thermomax at 490 nm using the Softmax program. The T0 plate served as a reference for initial activity at the beginning of the experiment.
(§2) Compound addition began 24 hours after seeding, the same time as the T0 determination. Serial dilutions at 4-fold 2-fold, 1-fold, 0.5-fold, 0.25-fold and 0.125-fold of previously determined IC50 values of each compound were made in a 96-deep well plate with the highest concentrations on the edge of the plate. Each of the six dilutions were added in triplicate and complete medium was added to the empty outer rows, without cells. The compounds were added to the plates singly or in combination with Compound III (LBH589). The plates were incubated at 37° C. for 72 hours from seeding. The MTS solution was added (as for the T0 plate) and read four hours later. In order to analyze the data, the average value of media alone (background) was subtracted from each experimental well and the triplicate values were averaged for each compound dilution. The following formulas were used to calculate percent growth.
(§3) If X>T0, % Growth=100×(X−T0)/(GC−T0))
(§4) If X<T0, % Growth=100×(X−T0)/T0)
(§5) T0=average value of T0 minus background
(§6) GC=average value of untreated cells (in triplicate) minus background X=average value, of compound treated cells (in triplicate) minus background
(§7) IC50 the concentration of LBH589 required to inhibit cell growth by 50% and LD50s the concentration required to reduce cell number (kill cells) to 50% the original innoculum were determined. The “% Growth” was plotted against compound concentration and used to calculate IC50s and LD50s, employing the user-defined spline function in Microsoft Excel.
(§8) Colon cancer cell lines were treated with DMSO vehicle control or varying concentrations of LBH589 for 3 days. Cell proliferation was measured on the day of cell plating and on the third day post-treatment. IC50 and LD50 values were calculated as described above.

[2] = system: T84 colon cancer cell line
Description: as §1, §2, §3, §4, §5, §6, §7, §8

[3] = system: Colo320 colon cancer cell line
Description: as §1, §2, §3, §4, §5, §6, §7, §8

[4] = system: LS1034 colon cancer cell line
Description: as §1, §2, §3, §4, §5, §6, §7, §8

[5] = system: SW480 colon cancer cell line
Description: as §1, §2, §3, §4, §5, §6, §7, §8

[6] = system: SW837 colon cancer cell line
Description: as §1, §2, §3, §4, §5, §6, §7, §8

[7] = system: Colo206F colon cancer cell line
Description: as §1, §2, §3, §4, §5, §6, §7, §8

[8] = system: WiDr colon cancer cell line
Description: as §1, §2, §3, §4, §5, §6, §7, §8

[9] = system: C170 colon cancer cell line
Description: as §1, §2, §3, §4, §5, §6, §7, §8

[10] = system: HCC2998 colon cancer cell line
Description: as §1, §2, §3, §4, §5, §6, §7, §8

[11] = system: Colo201 colon cancer cell line
Description: as §1, §2, §3, §4, §5, §6, §7, §8

[12] = system: DLD-1 colon cancer cell line
Description: as §1, §2, §3, §4, §5, §6, §7, §8

[13] = system: LOVO colon cancer cell line
Description: as §1, §2, §3, §4, §5, §6, §7, §8

[14] = system: HT115 colon cancer cell line
Description: as §1, §2, §3, §4, §5, §6, §7, §8

[15] = system: HCT8 colon cancer cell line
Description: as §1, §2, §3, §4, §5, §6, §7, §8

[16] = system: HCT116 Bax −/− colon cancer cell line
Description: as §1, §2, §3, §4, §5, §6, §7, §8

[17] = system: Colo320DM colon cancer cell line
Description: as §1, §2, §3, §4, §5, §6, §7, §8

[18] = 3 days, concentration reducing cell number to 50% of original inoculum
[19] = Homo sapiens, 72 h, 3 days treatment

Cc1[nH]c2ccccc2c1CCNCc1ccc(/C=C/C(=O)NO)cc1 [LBH589, N-hydroxy-3-[4-[[[2-(2-methyl-1H-indol-3-yl)ethyl]-amino]methyl]phenyl]-2E-2-propenamide] was tested, and the “LD50” value [1, 18] was >10 µM, the pIC50 ([1]; Homo sapiens, COLO-320-HSR, 72 h, 3 days treatment) was 7.86 and the pIC50 ([2]; 72 h, T84, 3 days treatment) was 8.67. The “LD50” value ([2]; T84, 3 days, concentration reducing cell number to 50% of original inoculum) was 32.82 nM, the “LD50” value ([3]; Colo320, 3 days, concentration reducing cell number to 50% of original inoculum) was 82.90 nM and the pIC50 ([3]; Homo sapiens, COLO 320, 72 h, Colo320, 3 days treatment) was 8.19. The pIC50 ([4]; Homo sapiens, LS-1034, 72 h, LS1034, 3 days treatment) was 7.12, the “LD50” value ([4]; LS1034, 3 days, concentration reducing cell number to 50% of original inoculum) was 227.83 nM and the pIC50 ([5]; Homo sapiens, 72 h, SW480, 3 days treatment) was 8.83. For the same molecule, the “LD50” value ([5]; SW480, 3 days, concentration reducing cell number to 50% of original inoculum) was 6.90 nM, the pIC50 ([6]; Homo sapiens, 72 h, SW837, 3 days treatment) was 9.18 and the “LD50” value ([6]; SW837, 3 days, concentration reducing cell number to 50% of original inoculum) was 11.46 nM. For the same molecule, the “LD50” value [7, 18] was >10 µM, the pIC50 ([7]; COLO 206F, 72 h, 3 days treatment) was 7.99 and the “LD50” value [8, 18] was 41.86 nM. For the same molecule, the pIC50 [8, 19] was 8.36, the “LD50” value ([9]; C170, 3 days, concentration reducing cell number to 50% of original inoculum) was 382.03 nM and the pIC50 ([9]; Homo sapiens, 72 h, C170, 3 days treatment) was 7.21. For the same molecule, the “LD50” value ([10]; HCC2998, 3 days, concentration reducing cell number to 50% of original inoculum) was 154.87 nM, the pIC50 ([10]; Homo sapiens, HCC 2998, 72 h, HCC2998, 3 days treatment) was 7.53 and the “LD50” value ([11]; Colo201, 3 days, concentration reducing cell number to 50% of original inoculum) was 20.14 nM. For the same molecule, the pIC50 ([11]; Homo sapiens, COLO 201, 72 h, Colo201, 3 days treatment) was 7.82, the “LD50” value ([12]; DLD-1, 3 days, concentration reducing cell number to 50% of original inoculum) was 296.27 nM and the pIC50 ([12]; Homo sapiens, 72 h, DLD-1, 3 days treatment) was 7.21. The “LD50” value [13, 18] was 52.01 nM, the pIC50 [13, 19] was 8.36 and the pIC50 ([14]; 72 h, HT115, 3 days treatment) was 8.46. For the same molecule, the “LD50” value ([14]; HT115, 3 days, concentration reducing cell number to 50% of original inoculum) was 31.02 nM, the “LD50” value ([15]; HCT8, 3 days, concentration reducing cell number to 50% of original inoculum) was 77.70 nM and the pIC50 ([15]; Homo sapiens, HCT-8, 72 h, HCT8, 3 days treatment) was 8.31. For the same molecule, the “LD50” value [16, 18] was >10 µM, the pIC50 ([16]; Homo sapiens, HCT-116, 72 h, 3 days treatment) was 8.76 and the “LD50” value [17, 18] was 1103.37 nM. It also gave a pIC50 ([17]; Homo sapiens, COLO 320DM, 72 h, 3 days treatment) of 7.53.
